Here are results for 29 compounds from US9212151B2, “Heterocyclic compounds useful for kinase inhibition” (Amitech Therapeutic Solutions, Inc., priority 2010, dated 2015).

The data set in a line: MTT cell viability assay, compounds at 5, 1 and 0.2 μM, 48 hours. In kind it is cell-based. The note with it: human, A549 tumor cells. As to the method: MTT assay is used to determine cell proliferation, percent of viable cells, and cytotoxicity. MTT (3-[4,5-dimethylthiazol-2-yl]2,5-diphenyltetrazolium bromide) is a yellow dye, which can be absorbed by the living cells and be reduced to purplish blue formazan crystals by succinate tetrazolium reductase in mitochondria. Formazan formation can therefore be used to assess and determine the survival rate of cells.
Tumor cells (A549) were plated at 2500 cells/well of a 96-well plate in complete growth medium (DMEM+10% FBS, antibiotic/antimycotic, fungizone, L-glutamine, sodium pyruvate, and non-essential amino acids). The cells were allowed to grow overnight. After cell proliferation, the cells were washed and re-suspended in fresh culture medium and placed in 96 well plates.
To each of the 96 well plates containing A549 and a control, 5, 1, and 0.2 μM of the exemplary compounds 1-200 were add. The 96 well plates were incubated for 48 hours. Cell viability was measured by adding MTT (Sigma) at 5 mg/ml for 4 h to the cells and then removing the medium and resuspending each well in 50 μl DMSO to solubilize the crystals. The 96-well plates were read on a plate-scanning spectrophotometer (BioTek) at an absorbance of […]. The survival rate of cells was calculated based on the measurement of absorption at the 570 nm wavelength by enzyme immunoassay analyzer.
Background: Formazan colour is commonly taken as a measure of viable cells.

Bounds are passed on as bounds.

The term viability denotes a read-out of living cells in per cent, often relative to untreated cells. Read a low viability as more harm to the cells. As for `CCc1nc(N)cc(Oc2cccc(-c3nnc(Nc4cccc(C(F)(F)F)c4)[nH]3)c2)n1` [Compound 99], the viability at 48 h, 0.2 µM was greater than 70%; the viability at 48 h, 1 µM is greater than 70%; the viability at 48 h, 5 µM fell in the range of 50 to 70%.
Turning to `NS(=O)(=O)c1cnccc1Oc1cccc(-c2nnc(Nc3cccc(C(F)(F)F)c3)[nH]2)c1` [Compound 19], the viability at 48 h, 0.2 µM was greater than 70%; the viability at 48 h, 1 µM was greater than 70%; the viability at 48 h, 5 µM is greater than 70%.
Take `COc1ccc2c(Oc3cccc(-c4nnc(Nc5cccc(C(F)(F)F)c5)[nH]4)c3)ncnc2c1` [Compound 87]: the viability at 48 h, 0.2 µM is greater than 70%; the viability at 48 h, 1 µM was greater than 70%; the viability at 48 h, 5 µM is greater than 70%.
As to `CSc1nc(N)cc(Oc2ccc(-c3nnc(NC4CCCCC4)[nH]3)cc2)n1` [Compound 155], the viability at 48 h, 0.2 µM is greater than 70%; the viability at 48 h, 1 µM is greater than 70%; the viability at 48 h, 5 µM was less than 50%.
Regarding `COc1nc(N)cc(Oc2ccc(-c3nnc(Nc4cccc(C(F)(F)F)c4)[nH]3)cc2)n1` [Compound 72], the viability at 48 h, 0.2 µM was greater than 70%; the viability at 48 h, 1 µM was greater than 70%; the viability at 48 h, 5 µM is less than 50%.
The compound `CSc1nc(N)cc(Oc2ccc(-c3nnc(Nc4cccc(C(F)(F)F)c4)[nH]3)c(Cl)c2)n1` [Compound 112] showed a viability at 48 h, 0.2 µM greater than 70%; a viability at 48 h, 1 µM greater than 70%; a viability at 48 h, 5 µM greater than 70%.
For `CSc1nc(N)cc(Oc2ccc(-c3nnc(Nc4cccc(C(C)(C)C#N)c4)[nH]3)cc2)n1` [Compound 131], the viability at 48 h, 0.2 µM is greater than 70%; the viability at 48 h, 1 µM was greater than 70%; the viability at 48 h, 5 µM is less than 50%.
The compound `CC(C)(C)Sc1nc(N)cc(Oc2ccc(-c3nnc(Nc4cccc(C(F)(F)F)c4)[nH]3)cc2)n1` [Compound 80] registered a viability at 48 h, 0.2 µM greater than 70%; a viability at 48 h, 1 µM of 50 to 70%; a viability at 48 h, 5 µM of less than 50%.
Turning to `COc1cc(Oc2ccc(-c3nnc(Nc4cccc(C(F)(F)F)c4)[nH]3)cc2)ncn1` [Compound 76], the viability at 48 h, 0.2 µM was greater than 70%; the viability at 48 h, 1 µM was greater than 70%; the viability at 48 h, 5 µM was in the range of 50 to 70%.
As for `CCc1cc(Oc2ccc(-c3nnc(Nc4cccc(C(F)(F)F)c4)[nH]3)cc2)nc(N)n1` [Compound 77], the viability at 48 h, 0.2 µM is greater than 70%; the viability at 48 h, 1 µM fell in the range of 50 to 70%; the viability at 48 h, 5 µM was 50 to 70%.
In turn, `FC(F)(F)c1cccc(Nc2nnc(-c3cccc(Oc4cncnc4)c3)[nH]2)c1` [Compound 101] gave a viability at 48 h, 0.2 µM greater than 70%; a viability at 48 h, 1 µM greater than 70%; a viability at 48 h, 5 µM greater than 70%.
In turn, `CSc1nc(N)cc(Oc2ccc(-c3nnc(Nc4cccc(Cl)c4)[nH]3)cc2)n1` [Compound 133] came in with a viability at 48 h, 0.2 µM greater than 70%; a viability at 48 h, 1 µM of less than 50%; a viability at 48 h, 5 µM of less than 50%.
On to `CNc1cc(Oc2ccc(-c3nnc(Nc4cccc(C(F)(F)F)c4)[nH]3)cc2)nc(SC)n1` [Compound 118], for which the viability at 48 h, 0.2 µM is greater than 70%; the viability at 48 h, 1 µM is greater than 70%; the viability at 48 h, 5 µM was greater than 70%.
The compound `CSc1nc(N)cc(Oc2ccc(-c3nnc(Nc4ccc(F)c(C(F)(F)F)c4)[nH]3)cc2)n1` [Compound 105] yielded a viability at 48 h, 0.2 µM greater than 70%; a viability at 48 h, 1 µM greater than 70%; a viability at 48 h, 5 µM of less than 50%.
With `FC(F)(F)c1cccc(Nc2nnc(-c3ccc(Oc4ccnc(Cl)c4)cc3)o2)c1` [Compound 30], the viability at 48 h, 0.2 µM was greater than 70%; the viability at 48 h, 1 µM was greater than 70%; the viability at 48 h, 5 µM lay in the range of 50 to 70%.
With `Cc1nc(C(F)(F)F)nc(Oc2ccc(-c3nnc(Nc4cccc(C(F)(F)F)c4)[nH]3)cc2)c1C` [Compound 157], the viability at 48 h, 0.2 µM was greater than 70%; the viability at 48 h, 1 µM was greater than 70%; the viability at 48 h, 5 µM was greater than 70%.
In turn, `CC(C)(C)Sc1nc(N)cc(Oc2cccc(-c3nnc(Nc4cccc(C(F)(F)F)c4)[nH]3)c2)n1` [Compound 98] yielded a viability at 48 h, 0.2 µM greater than 70%; a viability at 48 h, 1 µM greater than 70%; a viability at 48 h, 5 µM greater than 70%.
`Nc1nccc(Oc2ccc(-c3nnc(Nc4cccc(C(F)(F)F)c4)[nH]3)cc2)n1` [Compound 1]: the viability at 48 h, 0.2 µM is greater than 70%; the viability at 48 h, 1 µM lay within 50 to 70%; the viability at 48 h, 5 µM fell in the range of 50 to 70%.
Consider `FC(F)(F)c1cccc(Nc2nnc(-c3cccc(Oc4ccnc5cc(C(F)(F)F)ccc45)c3)[nH]2)c1` [Compound 165], for which the viability at 48 h, 0.2 µM is greater than 70%; the viability at 48 h, 1 µM is greater than 70%; the viability at 48 h, 5 µM is greater than 70%.
`COc1ccc(Nc2nnc(-c3cccc(C(F)(F)F)c3)[nH]2)cc1` [Compound 183]: the viability at 48 h, 0.2 µM was greater than 70%; the viability at 48 h, 1 µM was greater than 70%; the viability at 48 h, 5 µM is greater than 70%.
The compound `COc1cc(-c2nnc(Nc3cccc(C(F)(F)F)c3)[nH]2)ccc1Oc1cc(N)nc(SC)n1` [Compound 109] returned a viability at 48 h, 0.2 µM greater than 70%; a viability at 48 h, 1 µM greater than 70%; a viability at 48 h, 5 µM of less than 50%.
Regarding `CSc1nc(N)cc(Oc2ccc(-c3nnc(Nc4ccc5c(c4)CCC5)[nH]3)cc2)n1` [Compound 124], the viability at 48 h, 0.2 µM was greater than 70%; the viability at 48 h, 1 µM is greater than 70%; the viability at 48 h, 5 µM is less than 50%.
Take `Cc1ccc2nccc(Oc3cccc(-c4nnc(Nc5cccc(C(F)(F)F)c5)[nH]4)c3)c2c1` [Compound 172]: the viability at 48 h, 0.2 µM is greater than 70%; the viability at 48 h, 1 µM was greater than 70%; the viability at 48 h, 5 µM fell in the range of 50 to 70%.
In turn, `COc1ccc2nccc(Oc3cccc(-c4nnc(Nc5cccc(C(F)(F)F)c5)[nH]4)c3)c2c1` [Compound 191] gave a viability at 48 h, 0.2 µM greater than 70%; a viability at 48 h, 1 µM greater than 70%; a viability at 48 h, 5 µM greater than 70%.
On to `CC(C)(C)Sc1cc(Oc2ccc(-c3nnc(Nc4cccc(C(F)(F)F)c4)[nH]3)cc2)nc(N)n1` [Compound 141], for which the viability at 48 h, 0.2 µM is greater than 70%; the viability at 48 h, 1 µM is greater than 70%; the viability at 48 h, 5 µM is less than 50%.
Take `COc1cc(-c2nnc(Nc3cccc(C(F)(F)F)c3)[nH]2)ccc1Oc1ccncc1` [Compound 108]: the viability at 48 h, 0.2 µM is greater than 70%; the viability at 48 h, 1 µM is greater than 70%; the viability at 48 h, 5 µM was less than 50%.
`CSc1nc(N)cc(Oc2ccc(-c3nnc(Nc4cc(C(C)(C)C)n[nH]4)[nH]3)cc2)n1` [Compound 132] had a viability at 48 h, 0.2 µM greater than 70%; a viability at 48 h, 1 µM greater than 70%; a viability at 48 h, 5 µM of less than 50%.
The compound `FC(F)(F)c1cccc(Nc2nnc(-c3cccc(Oc4ncnc5[nH]ccc45)c3)[nH]2)c1` [Compound 21] had a viability at 48 h, 0.2 µM greater than 70%; a viability at 48 h, 1 µM greater than 70%; a viability at 48 h, 5 µM greater than 70%.
In turn, `CSc1nc(N)cc(Oc2ccc(-c3nnc(Nc4cccc(C(F)(F)F)c4)[nH]3)cc2Cl)n1` [Compound 104] showed a viability at 48 h, 0.2 µM greater than 70%; a viability at 48 h, 1 µM greater than 70%; a viability at 48 h, 5 µM of less than 50%.
